Where two headings read alike, the source gives them in different places.
Key:
[1] = test system: CCRF-CEM human T-cell acute lymphoblastic leukemia cell line; experiment: XTT cytotoxicity (cell growth inhibition), CCRF-CEM
Experimental: The DC-3F hamster lung fibroblast cell line and its actinomycin D-selected sublines (DC-3F/ADII and DC-3F/ADX) were obtained from the Memorial Sloan-Kettering Cancer Center (MSKCC).
(§1) The drug-resistant cell lines were continuously cultured in the presence of the selecting agent, AD, DX, VBL or VM to maintain the drug resistant phenotypes. […] All cells were cultured in RPMI 1640-10% FBS at 37° C. 5% CO2 (see below).
(§2) The cells were cultured at an initial density of 5×10^4 cells/mL. They were maintained in a 5% CO2-humidified atmosphere at 37° C. in RPMI-1640 medium (GIBCO-BRL, Gaithersburg, Md.) containing penicillin (100 U/mL), streptomycin ([…]) (GIBCO-BRL) and 10% heat inactivate fetal bovine serum. Culture for cell suspension (such as for CCRF-CEM, P388 and sublines), were performed by the XTT-microculture tetrazonium method (Scudiero, D. A. et al., Cancer Res. 1988, 48, 4827-4833) in duplicate in 96-well microtiter plates.
(§3) 2′,3′-Bis(methoxy-4-nitro-5-sufophenyl)-5-[(phenylamino)carbonyl]2H-tetrazolium hyudroxide (XTT) was prepared at 1 mg/mL in prewarmed (37° C.) medium without serum. Phenazine methosulfate (PMS) and fresh XTT were mixed together to obtain 0.025 mM PMS-XTT solution (25 μL of the stock 5 mM PMS was added per 5 mL of 1 mg/mL XTT). Following a 72 h incubation, 50 μL of the assay aliquots were added to each well of the cell culture. After incubation at 37° C. for 4 h, absorbance at 450 nm and 630 nm was measured with a microplate reader (EL340, Bio-Tek Instruments, Inc., Winooski, Vt.).

CCRF-CEM/VBL100 = experiment: cells; type: cell-based, human
Experimental: as §1, §2, §3

CCRF-CEM/VM1 = experiment: cells; type: cell-based, human; details: Table 6
Experimental: as §1, §2, §3

[2] = Table 6, single determinations, read-out: IC50
[3] = single determinations, read-out: IC50

CC(=Cc1csc(C)n1)C1CC2OC2CCCCC(O)C(C)C(=O)C(C)(C)C(O)CC(=O)O1 (mixture of isomers) [8-desmethyl Mix-cis Epo] was tested, and the IC50 ([1]; Table 6, single determinations) was 960 nM, the IC50 (CCRF-CEM/VBL100; [2]) was 5950 nM and the IC50 (CCRF-CEM/VM1; [3]) was 2550 nM.

CC(=Cc1csc(C)n1)C1CC=CCCCC(C)C(O)C(C)C(=O)C(C)(C)C(O)CC(=O)O1 (stereo not shown) [#4] was tested, and the IC50 ([1]; Table 6, single determinations, listed as 4) was 2120 nM, the IC50 ([1]; Table 7, CEM, listed as 4) was 2100 nM and the IC50 (CCRF-CEM/VBL100; Table 6, single determinations, listed as 4, read-out: IC50) was 43000 nM. The IC50 (CCRF-CEM/VBL100; Table 7, CEM/VBL, listed as 4, read-out: IC50) was 43800 nM and the IC50 (CCRF-CEM/VM1; single determinations, listed as 4, read-out: IC50) was 2760 nM.

CC(=Cc1csc(C)n1)C1CC2OC2CCCC(C)C(O)C(C)C(=O)C(C)(C)C(O)CC(=O)O1 (stereo not shown) [#5] showed an IC50 ([1]; Table 6, single determinations) greater than 20000 nM, an IC50 ([1]; Table 7, CEM) greater than 20000 nM and an IC50 (CCRF-CEM/VBL100; [2]) of 35200 nM. The IC50 (CCRF-CEM/VBL100; Table 7, CEM/VBL, read-out: IC50) was 35200 nM and the IC50 (CCRF-CEM/VM1; [3]) was 98000 nM.

With CC(=Cc1csc(C)n1)C1CC=CCCCC(C)C(O)C(C)C(=O)C(C)(C)C(O)CC(=O)O1 (stereo not shown) [#6] the IC50 [1] was 52 nM, the “Rel. Value (potency relative to Epo B)” value ([1]; CCRF-CEM leukemic cells) was 1/149 and the IC50 ([1]; Table 6, single determinations, listed as 6) was 52 nM. For the same compound, the IC50 ([1]; Table 7, CEM, listed as 6) was 52 nM, the IC50 (CCRF-CEM/VBL100; Table 6, single determinations, listed as 6, read-out: IC50) was 35 nM and the IC50 (CCRF-CEM/VBL100; Table 7, CEM/VBL, listed as 6, read-out: IC50) was 35 nM. It also gave an IC50 (CCRF-CEM/VBL100; read-out: IC50) of 35 nM and an IC50 (CCRF-CEM/VM1; single determinations, listed as 6, read-out: IC50) of 111 nM.

Work on C/C(=C\c1csc(C)n1)[C@@H]1C[C@@H]2O[C@]2(C)CCC[C@H](C)[C@H](O)[C@@H](C)C(=O)C(C)(C)[C@@H](O)CC(=O)O1 [#8, epothilone B] yielded an IC50 ([1]; Table 5, single determinations) of 0.42 nM, an IC50 ([1]; Table 6, single determinations, listed as 8) of 0.82 nM and an IC50 ([1]; Table 6, single determinations, listed as EPOTHILONE B (Synthetic)) of 0.55 nM. The IC50 ([1]; Table 7, CEM, listed as synthetic epothilone B) was 0.82 nM, the IC50 ([1]; read-out: IC50 (mean ± of determinations, in parentheses), Table 6) was 0.35 nM and the IC50 (CCRF-CEM/VBL100; Table 5, CCRF-CEM/VLB, single determinations, read-out: IC50) was 1.7 nM. It also gave an IC50 (CCRF-CEM/VBL100; Table 6, read-out: IC50 (mean ± of determinations, in parentheses)) of 2.13 nM, an IC50 (CCRF-CEM/VBL100; Table 6, single determinations, listed as 8, read-out: IC50) of 2.9 nM and an IC50 (CCRF-CEM/VBL100; Table 6, single determinations, listed as EPOTHILONE B (Synthetic), read-out: IC50) of 3.1 nM. The IC50 (CCRF-CEM/VBL100; Table 7, CEM/VBL, listed as synthetic epothilone B, read-out: IC50) was 2.93 nM, the IC50 (CCRF-CEM/VM1; read-out: IC50 (mean ± of determinations, in parentheses)) was 1.26 nM and the IC50 (CCRF-CEM/VM1; single determinations, listed as 8, read-out: IC50) was 4.4 nM. For the same compound, the IC50 (CCRF-CEM/VM1; single determinations, listed as EPOTHILONE B (Synthetic), read-out: IC50) was 1.8 nM.

C/C(=C\c1csc(C)n1)[C@@H]1C[C@@H]2O[C@]2(C)CCC[C@H](C)[C@H](O)[C@@H](C)C(=O)C(C)(C)[C@@H](O)CC(=O)O1 [#9, epothilone B] was tested, and the IC50 ([1]; Table 6, single determinations, listed as 9) was 0.44 nM, the IC50 ([1]; Table 6, single determinations, listed as EPOTHILONE B (Natural)) was 0.17 nM and the IC50 ([1]; Table 7, CEM, listed as natural epothitone B) was 0.44 nM. The “relative resistance (fold) vs parent cell line” value (CCRF-CEM/VBL100; Table 6) was “(7.0X)”, the IC50 (CCRF-CEM/VBL100; Table 6, single determinations, listed as 9, read-out: IC50) was 2.6 nM and the IC50 (CCRF-CEM/VBL100; Table 6, single determinations, listed as EPOTHILONE B (Natural), read-out: IC50) was 1.7 nM. For the same compound, the IC50 (CCRF-CEM/VBL100; Table 7, CEM/VBL, listed as natural epothitone B, read-out: IC50) was 2.63 nM, the IC50 (CCRF-CEM/VM1; single determinations, listed as 9, read-out: IC50) was 1.8 nM and the IC50 (CCRF-CEM/VM1; single determinations, listed as EPOTHILONE B (Natural), read-out: IC50) was 0.77 nM.

Source: patent US6603023B2 (priority 1996, dated 2003)
